Columns and labels:
[1] = target: Mitogen-activated protein kinase kinase kinase kinase 4 (Homo sapiens, UniProt O95819); test: Selectivity interaction (KinomeScan (DiscoverX)) EUB0000595a MAP4K4; conditions: at 10 µM
[2] = target: T1, Ephrin type-A receptor 3 (Homo sapiens) (UniProt P29320); test: Selectivity interaction (KinomeScan (DiscoverX)) EUB0000045b EPHA3
T1 sequence (whole entry): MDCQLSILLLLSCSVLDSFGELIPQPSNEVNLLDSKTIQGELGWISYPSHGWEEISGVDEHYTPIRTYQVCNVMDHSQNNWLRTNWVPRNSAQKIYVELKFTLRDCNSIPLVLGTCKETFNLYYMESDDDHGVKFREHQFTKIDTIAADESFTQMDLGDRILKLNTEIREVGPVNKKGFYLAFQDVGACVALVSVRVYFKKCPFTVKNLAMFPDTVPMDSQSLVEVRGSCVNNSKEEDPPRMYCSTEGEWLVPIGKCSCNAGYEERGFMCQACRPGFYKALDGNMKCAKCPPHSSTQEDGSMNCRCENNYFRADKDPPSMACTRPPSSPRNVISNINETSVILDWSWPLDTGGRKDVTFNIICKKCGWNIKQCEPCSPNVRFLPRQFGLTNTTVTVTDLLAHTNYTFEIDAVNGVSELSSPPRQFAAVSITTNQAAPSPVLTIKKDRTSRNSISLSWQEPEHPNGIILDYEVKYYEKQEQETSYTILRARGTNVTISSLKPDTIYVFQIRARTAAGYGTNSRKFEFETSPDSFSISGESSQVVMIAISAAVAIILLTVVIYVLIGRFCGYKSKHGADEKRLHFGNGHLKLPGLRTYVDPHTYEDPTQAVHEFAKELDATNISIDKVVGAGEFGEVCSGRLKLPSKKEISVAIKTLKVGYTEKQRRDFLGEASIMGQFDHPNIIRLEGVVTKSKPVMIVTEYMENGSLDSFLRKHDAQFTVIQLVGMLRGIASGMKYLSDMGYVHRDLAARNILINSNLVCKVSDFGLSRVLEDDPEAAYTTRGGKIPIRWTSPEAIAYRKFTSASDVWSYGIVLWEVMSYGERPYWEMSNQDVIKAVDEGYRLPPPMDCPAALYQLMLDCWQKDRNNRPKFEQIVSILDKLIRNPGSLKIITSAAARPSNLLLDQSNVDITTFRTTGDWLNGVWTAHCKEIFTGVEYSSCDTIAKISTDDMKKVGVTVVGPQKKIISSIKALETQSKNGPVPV

[3] = target: Protein kinase C delta type (Homo sapiens) (UniProt Q05655); test: Selectivity interaction (KinomeScan (DiscoverX)) EUB0000695a PRKCD; conditions: at 100 nM
Chain of Protein kinase C delta type (Homo sapiens) (Q05655 whole entry, looked up): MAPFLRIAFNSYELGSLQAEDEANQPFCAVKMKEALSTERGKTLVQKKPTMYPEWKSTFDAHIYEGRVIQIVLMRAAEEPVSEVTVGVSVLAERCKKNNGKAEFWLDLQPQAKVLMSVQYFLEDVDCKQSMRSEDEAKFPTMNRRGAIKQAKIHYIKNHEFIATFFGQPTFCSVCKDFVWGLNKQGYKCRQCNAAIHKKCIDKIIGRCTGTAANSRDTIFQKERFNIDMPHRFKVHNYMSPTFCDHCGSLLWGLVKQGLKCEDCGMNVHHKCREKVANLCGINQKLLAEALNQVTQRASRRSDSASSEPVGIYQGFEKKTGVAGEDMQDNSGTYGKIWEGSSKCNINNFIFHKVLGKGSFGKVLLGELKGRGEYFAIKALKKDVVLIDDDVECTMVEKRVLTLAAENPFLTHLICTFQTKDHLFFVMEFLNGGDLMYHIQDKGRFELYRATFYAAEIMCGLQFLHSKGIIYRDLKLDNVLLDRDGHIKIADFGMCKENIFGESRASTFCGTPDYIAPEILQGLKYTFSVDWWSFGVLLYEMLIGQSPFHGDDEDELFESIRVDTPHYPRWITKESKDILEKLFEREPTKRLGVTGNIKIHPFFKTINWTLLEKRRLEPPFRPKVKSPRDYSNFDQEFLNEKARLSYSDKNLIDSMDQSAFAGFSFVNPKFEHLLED

[4] = target: Tyrosine-protein kinase Fyn (Homo sapiens) (UniProt P06241); test: Selectivity interaction (KinomeScan (DiscoverX)) EUB0001079a FYN; conditions: at 1 µM
[5] = target: T2, Ephrin type-B receptor 3 (Homo sapiens) (UniProt P54753); test: Selectivity interaction (KinomeScan (DiscoverX)) EUB0000666a EPHB3; conditions: at 10 µM
T2 sequence (whole entry): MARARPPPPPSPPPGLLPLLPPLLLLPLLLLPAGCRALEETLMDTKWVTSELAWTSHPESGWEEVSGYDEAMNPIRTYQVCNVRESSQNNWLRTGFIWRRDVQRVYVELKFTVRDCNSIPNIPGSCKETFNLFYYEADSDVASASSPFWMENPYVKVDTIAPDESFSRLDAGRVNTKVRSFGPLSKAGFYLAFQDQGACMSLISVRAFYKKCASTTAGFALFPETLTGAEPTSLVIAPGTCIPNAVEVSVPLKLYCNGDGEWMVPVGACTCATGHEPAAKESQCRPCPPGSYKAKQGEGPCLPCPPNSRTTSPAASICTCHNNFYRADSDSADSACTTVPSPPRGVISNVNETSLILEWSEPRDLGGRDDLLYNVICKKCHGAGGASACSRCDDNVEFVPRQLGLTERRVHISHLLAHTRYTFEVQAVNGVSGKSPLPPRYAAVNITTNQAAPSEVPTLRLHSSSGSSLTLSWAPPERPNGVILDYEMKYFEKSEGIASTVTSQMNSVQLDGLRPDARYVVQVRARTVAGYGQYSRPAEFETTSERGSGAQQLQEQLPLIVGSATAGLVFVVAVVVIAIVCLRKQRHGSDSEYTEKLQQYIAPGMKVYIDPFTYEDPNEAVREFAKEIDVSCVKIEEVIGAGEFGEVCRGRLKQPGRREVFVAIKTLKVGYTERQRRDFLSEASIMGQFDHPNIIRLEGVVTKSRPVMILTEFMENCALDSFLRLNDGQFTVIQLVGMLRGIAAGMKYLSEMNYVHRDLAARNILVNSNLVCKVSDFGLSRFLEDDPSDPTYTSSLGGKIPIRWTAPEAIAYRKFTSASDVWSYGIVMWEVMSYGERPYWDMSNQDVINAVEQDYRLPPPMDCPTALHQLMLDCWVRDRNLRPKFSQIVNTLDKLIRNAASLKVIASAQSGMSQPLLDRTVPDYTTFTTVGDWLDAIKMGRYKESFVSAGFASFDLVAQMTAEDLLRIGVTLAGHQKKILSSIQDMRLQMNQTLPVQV

[6] = target: Lethal(3)malignant brain tumor-like protein 1 (Homo sapiens) (UniProt Q9Y468); test: Selectivity interaction (PWWP, WD40, and Tudor domain panel (DSLS measurements, literature)) EUB0000270b L3MBTL
Chain of Lethal(3)malignant brain tumor-like protein 1 (Homo sapiens) (Q9Y468 whole entry, the tested form may be a part): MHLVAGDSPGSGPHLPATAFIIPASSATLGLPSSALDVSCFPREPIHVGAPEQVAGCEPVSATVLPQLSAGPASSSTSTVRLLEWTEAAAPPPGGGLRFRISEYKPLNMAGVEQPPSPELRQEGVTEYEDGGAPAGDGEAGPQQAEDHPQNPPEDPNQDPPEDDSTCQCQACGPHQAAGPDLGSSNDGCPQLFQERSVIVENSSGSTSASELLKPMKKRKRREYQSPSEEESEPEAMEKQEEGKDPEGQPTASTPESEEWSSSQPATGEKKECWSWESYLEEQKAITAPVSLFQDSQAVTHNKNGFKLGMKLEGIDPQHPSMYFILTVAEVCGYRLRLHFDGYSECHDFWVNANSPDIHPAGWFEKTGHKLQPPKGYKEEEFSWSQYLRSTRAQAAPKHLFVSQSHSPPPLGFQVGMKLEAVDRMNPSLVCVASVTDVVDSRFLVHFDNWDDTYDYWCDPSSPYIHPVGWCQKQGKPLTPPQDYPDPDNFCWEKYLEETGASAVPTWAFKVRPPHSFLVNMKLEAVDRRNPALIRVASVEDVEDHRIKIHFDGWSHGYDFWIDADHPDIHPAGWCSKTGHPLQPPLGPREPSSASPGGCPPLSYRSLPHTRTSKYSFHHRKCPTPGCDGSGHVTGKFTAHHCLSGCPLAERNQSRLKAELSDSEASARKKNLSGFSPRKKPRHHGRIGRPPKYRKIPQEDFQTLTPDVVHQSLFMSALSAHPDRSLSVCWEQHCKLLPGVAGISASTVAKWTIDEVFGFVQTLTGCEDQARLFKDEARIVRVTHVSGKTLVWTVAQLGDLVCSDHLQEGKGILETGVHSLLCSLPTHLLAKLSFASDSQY

[7] = target: E3 ubiquitin-protein ligase TRIM33 (Homo sapiens) (UniProt Q9UPN9); test: Selectivity interaction (Bromodomain panel (DSF asssay)) EUB0000270b TRIM33
[8] = Selectivity interaction (KinomeScan (DiscoverX)) EUB0001619a CDPK1; conditions: at 1 µM
[9] = target: Phosphatidylinositol 4,5-bisphosphate 3-kinase catalytic subunit beta isoform (Homo sapiens) (UniProt P42338); test: Selectivity interaction (KinomeScan (DiscoverX)) EUB0000607a PIK3CB; conditions: at 10 µM
Chain of Phosphatidylinositol 4,5-bisphosphate 3-kinase catalytic subunit beta isoform (Homo sapiens) (P42338 whole entry, looked up, canonical isoform): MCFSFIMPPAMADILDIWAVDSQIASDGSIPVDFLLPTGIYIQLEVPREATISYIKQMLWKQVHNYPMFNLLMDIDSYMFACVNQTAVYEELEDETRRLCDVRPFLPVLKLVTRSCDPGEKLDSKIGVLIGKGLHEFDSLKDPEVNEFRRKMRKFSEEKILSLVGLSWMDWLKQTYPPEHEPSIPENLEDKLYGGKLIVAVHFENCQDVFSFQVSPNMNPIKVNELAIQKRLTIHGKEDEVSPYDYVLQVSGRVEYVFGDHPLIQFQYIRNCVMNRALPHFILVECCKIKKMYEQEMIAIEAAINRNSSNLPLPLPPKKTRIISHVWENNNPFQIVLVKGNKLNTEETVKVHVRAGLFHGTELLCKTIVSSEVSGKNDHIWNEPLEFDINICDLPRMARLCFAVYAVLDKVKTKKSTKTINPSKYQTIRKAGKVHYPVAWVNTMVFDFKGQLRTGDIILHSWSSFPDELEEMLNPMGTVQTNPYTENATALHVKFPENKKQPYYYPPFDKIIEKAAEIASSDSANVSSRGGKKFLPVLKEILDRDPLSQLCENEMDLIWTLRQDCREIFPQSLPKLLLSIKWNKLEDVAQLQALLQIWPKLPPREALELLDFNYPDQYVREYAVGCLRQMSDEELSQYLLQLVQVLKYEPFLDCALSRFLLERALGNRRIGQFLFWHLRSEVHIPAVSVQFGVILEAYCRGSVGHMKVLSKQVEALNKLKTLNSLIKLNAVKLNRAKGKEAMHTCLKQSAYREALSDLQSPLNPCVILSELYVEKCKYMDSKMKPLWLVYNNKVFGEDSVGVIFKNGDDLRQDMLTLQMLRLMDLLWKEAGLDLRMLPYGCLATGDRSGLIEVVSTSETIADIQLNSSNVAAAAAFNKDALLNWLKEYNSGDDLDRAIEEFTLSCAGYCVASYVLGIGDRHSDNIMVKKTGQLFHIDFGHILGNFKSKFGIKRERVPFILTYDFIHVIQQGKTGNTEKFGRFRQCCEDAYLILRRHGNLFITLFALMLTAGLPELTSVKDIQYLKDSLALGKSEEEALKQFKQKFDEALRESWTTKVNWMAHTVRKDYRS

[10] = target: Ephrin type-A receptor 5 (Homo sapiens) (UniProt P54756); test: Selectivity interaction (KinomeScan (DiscoverX)) EUB0000618a EPHA5; conditions: at 10 µM
[11] = target: Serine/threonine-protein kinase N1 (Homo sapiens, UniProt Q16512); test: Selectivity interaction (ActivX KiNativ screen (kinase selectivity in THP-1 cell lysates)) EUB0000639a PKN1; type: subcellular; conditions: lysate, at 0.01 µM
Chain of Serine/threonine-protein kinase N1 (Q16512 2-942 limits assumed): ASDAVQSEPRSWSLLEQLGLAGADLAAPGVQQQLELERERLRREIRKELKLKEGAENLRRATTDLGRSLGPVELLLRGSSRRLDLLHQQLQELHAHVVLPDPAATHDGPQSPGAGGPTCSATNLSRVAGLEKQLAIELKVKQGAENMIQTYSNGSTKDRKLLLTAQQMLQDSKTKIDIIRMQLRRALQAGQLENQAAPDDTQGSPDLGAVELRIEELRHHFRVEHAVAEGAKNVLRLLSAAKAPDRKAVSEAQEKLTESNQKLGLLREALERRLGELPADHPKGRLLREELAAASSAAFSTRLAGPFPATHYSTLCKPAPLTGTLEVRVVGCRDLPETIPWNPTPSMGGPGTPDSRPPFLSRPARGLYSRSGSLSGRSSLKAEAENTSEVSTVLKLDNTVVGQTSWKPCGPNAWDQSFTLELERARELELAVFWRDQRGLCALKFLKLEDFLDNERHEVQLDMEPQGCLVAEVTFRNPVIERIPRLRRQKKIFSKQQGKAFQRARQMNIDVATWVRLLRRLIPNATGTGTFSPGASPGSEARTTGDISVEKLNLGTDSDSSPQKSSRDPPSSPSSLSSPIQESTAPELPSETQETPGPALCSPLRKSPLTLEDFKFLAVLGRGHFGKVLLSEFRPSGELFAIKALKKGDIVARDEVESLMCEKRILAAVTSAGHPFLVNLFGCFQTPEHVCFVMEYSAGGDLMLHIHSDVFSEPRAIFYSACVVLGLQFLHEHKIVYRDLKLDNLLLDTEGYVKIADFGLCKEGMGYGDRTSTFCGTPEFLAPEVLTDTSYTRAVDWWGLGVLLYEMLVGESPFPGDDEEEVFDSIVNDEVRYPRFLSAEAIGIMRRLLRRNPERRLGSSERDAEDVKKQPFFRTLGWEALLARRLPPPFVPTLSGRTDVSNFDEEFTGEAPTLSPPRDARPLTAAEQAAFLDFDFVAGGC

[12] = target: Dual specificity protein kinase CLK2 (Homo sapiens, UniProt P49760); test: Selectivity interaction (KinomeScan (DiscoverX)) EUB0000092b CLK2; conditions: at 10 µM
[13] = test system: Tyrosine-protein kinase ABL1 (Homo sapiens), P00519 [H396P]; test: Selectivity interaction (Ambit KINOMEscan and KiNATiv profiling in Jurkat cells) EUB0000090b ABL1; type: cell-based; conditions: at 1 µM

Chain of Mitogen-activated protein kinase kinase kinase kinase 4 (O95819 2-1239 limits assumed): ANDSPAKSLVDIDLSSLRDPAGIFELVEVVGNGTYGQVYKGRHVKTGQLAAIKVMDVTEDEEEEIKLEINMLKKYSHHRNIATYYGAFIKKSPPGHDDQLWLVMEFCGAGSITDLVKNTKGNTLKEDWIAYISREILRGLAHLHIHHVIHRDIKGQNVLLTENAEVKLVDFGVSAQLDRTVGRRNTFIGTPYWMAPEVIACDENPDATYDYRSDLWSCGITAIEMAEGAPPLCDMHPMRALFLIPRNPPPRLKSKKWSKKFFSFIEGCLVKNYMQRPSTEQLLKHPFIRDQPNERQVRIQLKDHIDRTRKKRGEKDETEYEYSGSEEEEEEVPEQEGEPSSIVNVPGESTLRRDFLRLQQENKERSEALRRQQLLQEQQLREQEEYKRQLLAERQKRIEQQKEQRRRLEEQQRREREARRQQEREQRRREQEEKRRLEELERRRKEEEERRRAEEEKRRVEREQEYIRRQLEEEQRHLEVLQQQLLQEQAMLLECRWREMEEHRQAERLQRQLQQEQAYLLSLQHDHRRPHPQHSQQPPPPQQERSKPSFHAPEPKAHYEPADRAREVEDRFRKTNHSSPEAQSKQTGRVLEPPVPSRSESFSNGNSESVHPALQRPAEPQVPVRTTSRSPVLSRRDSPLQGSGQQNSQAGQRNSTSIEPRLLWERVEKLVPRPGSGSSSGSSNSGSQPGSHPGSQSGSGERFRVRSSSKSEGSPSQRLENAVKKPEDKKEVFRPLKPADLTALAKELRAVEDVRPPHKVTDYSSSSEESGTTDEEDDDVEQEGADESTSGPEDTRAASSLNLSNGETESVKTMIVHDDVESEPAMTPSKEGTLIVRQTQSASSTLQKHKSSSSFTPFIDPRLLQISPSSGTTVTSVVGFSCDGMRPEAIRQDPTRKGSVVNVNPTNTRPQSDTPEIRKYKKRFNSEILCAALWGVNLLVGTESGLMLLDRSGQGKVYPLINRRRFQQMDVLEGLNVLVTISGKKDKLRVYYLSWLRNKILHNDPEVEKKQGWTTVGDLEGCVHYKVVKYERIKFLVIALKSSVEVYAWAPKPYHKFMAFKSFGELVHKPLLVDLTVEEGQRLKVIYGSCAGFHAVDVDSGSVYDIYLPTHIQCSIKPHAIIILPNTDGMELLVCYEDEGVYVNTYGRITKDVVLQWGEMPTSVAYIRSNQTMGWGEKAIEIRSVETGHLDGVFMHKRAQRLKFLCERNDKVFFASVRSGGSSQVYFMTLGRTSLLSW

## COCC(=O)NC/C=C/c1ccc2ncnc(Nc3ccc(Oc4ccc(C)nc4)c(C)c3)c2c1 [CP-724714]
[1]
  % of control: 97%

## C=CC(=O)Nc1cc(-n2c(=O)ccc3cnc4ccc(-c5ccc(NS(C)(=O)=O)cc5)cc4c32)ccc1C
[2]; at 1 µM
  % of control: 89%
[2]; at 10 µM
  % of control: 92%

## Cc1cc(F)c(C(=O)Nc2cccc(-c3nncn3C(C)C)n2)cc1-n1cnc(C2CC2)c1
[3]
  % of control: 100%

## Nc1cnc(N2CCc3cc(S(=O)(=O)Nc4c(F)cc(Cl)cc4F)cc(N4CCCC4=O)c32)nc1 [TP-020n]
[4]
  % of control: 58%

## O=C(NOC[C@H](O)CO)c1ccc(F)c(F)c1Nc1ccc(I)cc1F
[5]
  % of control: 89%

## Cc1cc(CN)cc(C)c1-c1ncn(C)c1-c1cncn1C
[6]
  dTagg: 0.2 K
[7]
  dTM: -0.48 K

## N#Cc1cccc(-c2c[nH]c3ncnc(N4CCOCC4)c23)c1
[8]
  % of control: 78%

## CNC(=O)Nc1ccc(-c2nc(N3CC4CCC(C3)O4)c3cnn(C4CCC5(CC4)OCCO5)c3n2)cc1
[9]
  % of control: 46%

## O[C@H]1CC[C@H](Nc2ncc3nc(Nc4c(F)cc(F)cc4F)n([C@H]4CCOC4)c3n2)CC1
[10]
  % of control: 100%

## CC[C@@H]1[C@H](F)C(=O)N[C@@H]1COc1nccc2cc(C(N)=O)c(OC)cc12 [ZIMLOVISERTIB]
[11]
  % of inhibition: -9.7%

## CCC(=O)N1CCN(c2ccc(-n3c(=O)ccc4cnc5ccc(-c6cnc7ccccc7c6)cc5c43)cc2C(F)(F)F)CC1
[12]
  % of control: 65%

## CN(C)C/C=C/C(=O)Nc1ccc(C(=O)N2CCCC(Nc3ncc(Cl)c(-c4c[nH]c5ccccc45)n3)C2)cc1 (centres undefined)
[13]
  % of control: 100%
